# Results reported in ChEMBL document CHEMBL1157539, “Thousands of chemical starting points for antimalarial lead identification” (Nature, 2010).
# Tested on: Plasmodium falciparum
# Assay: GSK_TCMDC: Inhibition of Plasmodium falciparum 3D7 in whole erythrocytes, using parasite LDH activity as an index of growth.
# Assay type: functional, organism-based
# Details: Plasmodium falciparum, 3D7
row,SMILES,XC50
1,Cc1cc(N/N=C/c2cccc([N+](=O)[O-])c2)c2cc(F)ccc2n1,595 nM
2,CN(C)c1cc(NC(=O)Nc2ccccc2)c2ccccc2n1,405 nM
3,O=C(Cn1c(CCc2cccc(F)c2F)cc(=O)c2cccnc21)N(CCN1CCCC1)Cc1ccc(-c2ccc(C(F)(F)F)cc2)cc1,890 nM
4,CCN(CC)CCNc1ccc(Nc2ccnc3cc4ccccc4cc23)cc1,197 nM
5,CCc1ccc(CN2CCC(CNC(=O)c3cc(-c4cccc(C(F)(F)F)c4)cs3)C2)cc1 (configuration not stated),753 nM
6,CN1CCN(c2ccnc3ccc(NC(=O)Nc4ccc(-c5ccncc5)c5ccccc45)cc23)CC1,312 nM
7,Cc1cc(N[C@@H](Cc2ccccc2)C(=O)NCc2cccs2)nc(NCCc2ccccc2)n1,790 nM
8,COc1cccc(C(=O)NC(c2ccccc2OC)c2cc(Cl)c3cccnc3c2O)c1 (configuration not stated),1190 nM
9,Cc1cc(C)c(C(=O)Nc2n[nH]c3nnc(-c4cccc(F)c4F)cc23)c(C)c1,1070 nM
10,O=c1cc(NCCCNCc2cccc(Oc3ccccc3)c2)[nH]c2ccccc12,946 nM
11,N#Cc1nc2ccc(OCCN(Cc3ccccc3C(F)(F)F)c3ccc(C#N)c(C(F)(F)F)c3)cc2s1,855 nM
12,O=C(NCc1cccc(Cl)c1)c1ccc(CNC2CCN(Cc3ccccc3)CC2)cc1,884 nM
13,CCOc1ccc2c(c1)C(C)(c1ccc3c(c1)C(C)CC(C)(C)N3)CC(C)(C)N2 (configuration not stated),803 nM
14,OC(CNc1ccnc(Nc2cccc(Cl)c2)n1)c1cccc(F)c1 (configuration not stated),973 nM
15,Cc1ccc2nc3sc(C(=O)NCCCN4CCC(N5CCCCC5)CC4)cc3cc2c1,675 nM
16,FC(F)(F)c1cccc(-c2cc(NCCCn3ccnc3)nc(-c3ccncc3)n2)c1,105 nM
17,C[C@H]1CN(Cc2cccc(-c3cc(CNC(=O)c4cccc(CN5CCN(C/C=C/c6ccccc6)CC5)c4)ccc3F)c2)CCN1,852 nM
18,CC1(C)N=C(N)N=C(N)N1OCC1COc2ccccc2O1 (configuration not stated),35 nM
19,CC1(C)N=C(N)N=C(N)N1OCCCc1ccccc1,3.2 nM
20,C=CCc1ccccc1OCC(O)CN(C1CCCCC1)C1CCCCC1 (configuration not stated),814 nM
21,CCCCCc1cnc2nc(N)nc(N)c2c1,1230 nM
22,CS(=O)(=O)Cc1ccc(Nc2nccc(-c3c(-c4cccc(NC(=O)c5c(F)cccc5F)c4)nn4ncccc34)n2)cc1,162 nM
23,O=C(Nc1ccccc1)Nc1cccc(-c2cc(CNCCc3ccccc3)sc2-c2ccncc2)c1,598 nM
24,COc1cc(-c2nc(-c3ccc([N+](=O)[O-])cc3)c(-c3ccccc3)[nH]2)cc(OC)c1O,830 nM
25,CCC(Nc1noc(-c2c(-c3ccccc3)noc2C)n1)c1ccccc1 (configuration not stated),973 nM

row,SMILES,XC50
1,COc1ccc(-c2ccc([N+](=O)[O-])cc2C(=O)NCC(C)Oc2ccc(C(F)(F)F)cc2)cc1 (configuration not stated),550 nM
2,CC(C)OC(=O)c1ccccc1S(N)(=O)=O,674 nM
3,Cc1c(Cn2nc(Cl)c(N3CCNCC3)cc2=O)cccc1NC(=O)Nc1ccc(-c2ccccc2)cc1,1380 nM
4,CC(C)NCc1cccc(-c2cccc(NC(=O)c3ccc(C#N)cc3)c2)c1,646 nM
5,N#Cc1cccc(Nc2nccc(NCC(O)c3cccc(C(F)(F)F)c3)n2)c1 (configuration not stated),553 nM
6,CCN(CCCN1CCCCC1)c1cc(C)nc(Nc2ccc(C)c(C)c2)n1,1020 nM
7,O=C(Nc1cccc(F)c1)c1ccc(C(=O)NC2CCN(CC3CCCCC3)CC2)cc1,863 nM
8,O=C(NCc1ccc(F)cc1)Nc1cccc(-c2ccc(-c3nc4cc(F)ccc4[nH]3)cc2)c1,226 nM
9,C/C(=C\C(=O)NC1CC1)c1ccccc1OCc1ccccc1,504 nM
10,CS(=O)(=O)CCNCc1cccc(-c2ccc3c(Nc4ccc(Oc5cccnc5)cc4)ccnc3c2)c1,142 nM
11,CCc1ccc(NC(=O)c2cccc(CN3CCCN(CC4CCCCC4)CC3)c2)cc1,952 nM
12,CCOC(=O)c1ccc(OCCOc2ccccc2)cc1,367 nM
13,CN(C)Cc1ccc(-c2cccc(NC(=O)c3cccc(Cl)c3)c2)cc1,693 nM
14,O=S(=O)(Nc1cc2c(cc1O)CCN(C1CCC1)CC2)c1ccc(-c2ccc(F)cc2)cc1,417 nM
15,COc1ccc(-c2cc(C(=O)N[C@@H](CC3CCCCC3)C(=O)NC3CCCc4ccccc43)ccc2O)cc1 (some centres not stated),688 nM
16,CCc1c[nH]c2c(N(c3ccccc3)S(C)(=O)=O)cc(C(=O)N[C@@H](Cc3ccccc3)[C@H](O)CNCc3cccc(C(F)(F)F)c3)cc12,997 nM
17,c1csc(-c2ccc3c(c2)CC(NCc2c[nH]c4cnccc24)C3)c1 (configuration not stated),738 nM
18,COc1ccc(N2CCN(CCCCNC(=O)c3ccc(NC(=O)c4ccc(Cl)cc4)cc3)CC2)c(OC)c1,951 nM
19,COc1ccc(-c2ccc(CN(C)C3CCC(NC(=O)c4cc5ccccc5[nH]4)CC3)cc2)cn1 (configuration not stated),871 nM
20,CN(C)C(=O)c1ccc(CN(Cc2ccc3c(c2)OCCO3)Cc2ccc3c(c2)OCO3)cc1,175 nM
21,COc1ccc2nccc([C@@H](O)CN3CCC(NC(=O)C(c4cc5ccccc5s4)N4CC(C)OC(C)C4)CC3)c2c1 (some centres not stated),981 nM
22,CC(C)COc1ccc2ccccc2c1CNCCCCCCNCc1c(OCC(C)C)ccc2ccccc12,695 nM
23,O=[N+]([O-])c1cccc(NC(=S)N2CCCN(Cc3ccc(C(F)(F)F)cc3)CC2)c1,1200 nM
24,CCCC(C)Nc1nc(C)cc(N[C@@H](Cc2ccccc2)C(=O)NCc2cccc(F)c2)n1 (some centres not stated),882 nM
25,Cc1ccc(C2CCN(CCCCNC(=O)c3ccc(NC(=O)c4ccc(Cl)cc4)cc3)CC2)c(C)c1,842 nM

row,SMILES,XC50
1,COc1ccc(C2C(C(=O)Nc3cc(OC)c(OC)c(OC)c3)c3cc(OC)c(OC)cc3C(=O)N2C)cc1 (configuration not stated),801 nM
2,CCc1ccc(NC(=O)c2cccc(CN3CCCN(Cc4ccc(OC)cc4)CC3)c2)cc1,919 nM
3,CCCNCc1ccc(-c2ccc(CN(C(=O)c3nn(-c4ccccc4)nc3C)C3CC3)cc2)nc1,210 nM
4,CCN(CC)CCCNc1ncc2c(-c3ccc(NC(=O)Nc4cc(C(F)(F)F)ccc4F)c(F)c3)nn(C)c2n1,272 nM
5,CC(Cc1ccc(COc2ccc(CC(CO)NCCc3cccc(Cl)c3)cc2)cc1)NCCc1cccc(Cl)c1 (configuration not stated),821 nM
6,N#Cc1ccc(NC(=O)NC2CCN(CCCCCNC(=O)/C=C/c3ccc(Cl)c(Cl)c3)CC2)cc1,800 nM
7,COc1ccccc1C1CCN(C2CCC(NC(=O)/C=C/c3cc(C(F)(F)F)cc(C(F)(F)F)c3)CC2)CC1 (configuration not stated),1200 nM
8,OC(c1ccccc1)C1CN(CCc2ccccc2)CCC1(O)c1ccccc1 (configuration not stated),1040 nM
9,CN(C)CCN(C)Cc1ccc(-c2cccc(NC(=O)c3cccc(C#N)c3)c2)cc1,1180 nM
10,N#Cc1ccc(N/C(=N\c2cccc(Cl)c2Cl)NCc2ccc(Cl)cc2Cl)c(O)c1,1120 nM
11,O=C(NC(Cc1ccccc1)C(=O)O)c1cc(=O)c2ccccc2o1 (configuration not stated),191 nM
12,O=C(Nc1ccc2c(c1)CCN2C1CCN(Cc2ccc(F)cc2Cl)C1)c1ccco1 (configuration not stated),470 nM
13,COc1ccccc1C1CCN(C2CCC(NC(=O)/C=C/c3cc(F)cc(F)c3)CC2)CC1 (configuration not stated),1110 nM
14,Fc1ccccc1COc1ccc(Nc2ncnc3ccc(I)cc23)cc1Cl,930 nM
15,Cc1ccccc1CN1CCCN(Cc2ccc(C(=O)Nc3ccc(C(C)(C)C)cc3)cc2)CC1,863 nM
16,C[C@H](Cc1ccc(OCCCCOc2ccc(C[C@@H](C)NC[C@H](O)c3cccc(Cl)c3)cc2)cc1)NC[C@H](O)c1cccc(Cl)c1,756 nM
17,CN(C)CCNC(=O)N1CCCN(c2ncnc3cc(-c4ccc(Cl)cc4)sc23)CC1,1020 nM
18,COc1cncc(/C=C/c2cncc(C(=O)NCCc3ccc(Cl)cc3Cl)c2)c1,879 nM
19,COc1ccc2nccc([C@@H](O)CNCCCN(C)CCOc3cc(F)cc(F)c3)c2c1,789 nM
20,O=C(/C=C/c1ccc(F)c(C(F)(F)F)c1)N1CCC(CN2CCC(c3c[nH]c4ccccc34)CC2)CC1,917 nM
21,CC(C)c1ccc(NC(=O)Nc2ccc(CCNCCCc3ccccc3)cc2)cc1,761 nM
22,CCCCC(CC)NC(=O)[C@H]1CNCCN1C(=O)CCCc1ccccc1 (some centres not stated),885 nM
23,c1cc(C2=NC3CCCCC3N2)ccc1OCCCCCOc1ccc(C2=NC3CCCCC3N2)cc1 (configuration not stated),228 nM
24,CCNc1cc(C(=O)N[C@@H](Cc2ccccc2)[C@H](O)CNC(CC)c2cccc(Cl)c2)cc(N2CCCCS2(=O)=O)c1 (some centres not stated),51.7 nM
25,Nc1nc(N)c2c(ccc3c2ccn3CC2CC2)n1,211 nM

row,SMILES,XC50
1,O=C(Nc1ccsc1)Nc1cccc(-c2cccc(-c3nc4cc(F)ccc4[nH]3)c2)c1,199 nM
2,COc1cc(F)c2nccc([C@@H](O)CN3CCC(NC(=O)OCc4ccccc4)C(F)C3)c2c1 (some centres not stated),407 nM
3,CN(Cc1cnc2nc(N)nc(N)c2n1)c1ccc(C(=O)N[C@H](CCC(=O)OC(C)(C)C)C(=O)N[C@@H](CCC(=O)OC(C)(C)C)C(=O)OC(C)(C)C)cc1,1020 nM
4,Cc1cccc2nc(-c3ccc(-c4cccc(NC(=O)C(=O)c5cccn5C)c4)cc3)[nH]c12,976 nM
5,CCN1CCN(CCCNc2c3ccc(Cl)cc3nc3ccc(O)cc23)CC1,566 nM
6,CCN1CCN(C(=O)NC(C(=O)N(C)Cc2ccc(-c3ccc(C(F)(F)F)cc3)cc2)c2cccs2)C(=O)C1=O (configuration not stated),356 nM
7,CS(=O)(=O)c1ccc(CNCc2ccc(-c3cccc(-c4nc5cc(F)ccc5[nH]4)c3)cc2)cc1,315 nM
8,C=CCc1cc(Cc2cnc(N)nc2N)c2ccc(C)nc2c1OC,691 nM
9,CN(C)CCCNc1ccnc2cc(Cl)ccc12,283 nM
10,CCc1nc(N)nc(N)c1-c1ccc2c(c1)CCCC2,196 nM
11,COc1cc(Cc2cnc(N)nc2N)cc(OCCCCC#N)c1OC,1040 nM
12,Cc1ccc(S(=O)(=O)NC(=N)NC(N)=O)cc1,794 nM
13,C[C@H]1CN(Cc2cccc(-c3cc(CNC(=O)c4cccc(CC5CCN(C)CC5)c4)ccc3F)c2)CCN1C,1090 nM
14,Oc1ccc(-c2cncc(NCc3ccc(F)c(F)c3)c2)cc1,768 nM
15,Fc1ccc2[nH]c(-c3ccc(-c4ccc(CN5CCC(CCN6CCCCC6)CC5)cc4)cc3)nc2c1,129 nM
16,CN(C)CCOc1ccc2nc(-c3cccc(OCc4ccccc4)c3)[nH]c2c1C#N,256 nM
17,Cc1nc(C)c(-c2ccc(Oc3cc(Cl)cc(Cl)c3)cc2)c(O)c1Cl,524 nM
18,Fc1cccc(COc2ccc(Nc3ncnc4sc(C#C[C@H]5CC[C@H](CNCC(F)(F)F)N5)cc34)cc2Cl)c1,1420 nM
19,CC(C)(C)c1ccc2[nH]c(-c3ccc(/C=C/C(=O)NCc4cccc(C(F)(F)F)c4)cc3)nc2c1,986 nM
20,Cc1cc(NS(=O)(=O)c2cccc(C(C)N3CCC(N4CCCC4)CC3)c2)ccc1C(C)C (configuration not stated),824 nM
21,c1csc(-c2nc(N3CCCC3)ncc2-c2ccsc2)n1,210 nM
22,Cc1ccc(NC(=O)c2ccc(N3CCN(c4ccncc4)CC3)cn2)cc1F,1570 nM
